For experiment [1], the target named is Hypoxia-inducible factor 1-alpha (Homo sapiens, UniProt Q16665). Put plainly: Effective concentration to inhibit production of hypoxia inducible factor 1-alpha protein.
Experiment [2] is described as follows: Inhibitory concentration against NADH ubiquinone oxidoreductase.
The nature of experiment [3]: Inhibitory concentration against NADH-ubiquinone oxidoreductase.

Chain of Hypoxia-inducible factor 1-alpha (Q16665 whole entry): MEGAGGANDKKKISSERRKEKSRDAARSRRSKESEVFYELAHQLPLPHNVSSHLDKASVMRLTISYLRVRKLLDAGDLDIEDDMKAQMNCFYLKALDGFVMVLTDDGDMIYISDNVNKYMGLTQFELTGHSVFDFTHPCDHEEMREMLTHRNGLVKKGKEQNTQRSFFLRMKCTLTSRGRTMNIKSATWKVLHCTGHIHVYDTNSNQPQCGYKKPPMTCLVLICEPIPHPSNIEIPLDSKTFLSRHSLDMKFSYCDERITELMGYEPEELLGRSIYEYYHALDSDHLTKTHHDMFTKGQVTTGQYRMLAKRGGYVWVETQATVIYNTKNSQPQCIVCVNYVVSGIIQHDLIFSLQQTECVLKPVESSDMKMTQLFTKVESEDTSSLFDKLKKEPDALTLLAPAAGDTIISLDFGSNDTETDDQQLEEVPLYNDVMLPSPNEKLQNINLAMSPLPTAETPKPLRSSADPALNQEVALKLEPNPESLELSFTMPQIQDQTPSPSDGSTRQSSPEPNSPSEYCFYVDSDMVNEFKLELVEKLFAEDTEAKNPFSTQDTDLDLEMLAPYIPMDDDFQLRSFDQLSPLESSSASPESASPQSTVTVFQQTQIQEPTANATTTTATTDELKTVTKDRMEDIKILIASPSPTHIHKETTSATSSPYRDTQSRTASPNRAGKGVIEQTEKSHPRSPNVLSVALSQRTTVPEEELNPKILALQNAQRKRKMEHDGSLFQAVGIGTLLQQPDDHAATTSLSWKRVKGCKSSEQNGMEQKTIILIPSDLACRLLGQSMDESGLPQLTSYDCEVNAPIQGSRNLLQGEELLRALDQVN

On to `COc1c(C(C)n2cnc3ncccc32)ccc2c1C=CC(C)(C)O2` (stereo not given) [1-[1-(5-Methoxy-2,2-dimethyl-2H-chromen-6-yl)-ethyl]-1H-imidazo[4,5-b]pyridine], for which the concentration for a half-maximal effect (EC50) – broadly, the concentration that produces a half-maximal response – in experiment [1] stood at 35000 nM.

Take `COc1cc(COC(=O)c2ccc3c(c2)C=CC(C)(C)O3)cc(OC)c1OC` [2,2-Dimethyl-2H-chromene-6-carboxylic acid 3,4,5-trimethoxy-benzyl ester]: the IC50 in experiment [2] and in experiment [3] was 55 nM throughout.

As to `C=C(Cc1cc(OC)c(OC)c(OC)c1)c1ccc2c(c1)CCC(C)(C)O2` [2,2-Dimethyl-6-[1-(3,4,5-trimethoxy-benzyl)-vinyl]-chroman], the IC50 in experiment [2] and in experiment [3] was 18 nM in each case.
